Results taken from paper PMC3664191 (Bioorganic & medicinal chemistry letters, 2013).

How the values were obtained:
CSNK1E = CSNK1E (Homo sapiens, UniProt P49674); experiment: DiscoverRX KINOMEscan binding; settings: read-out: % control CSNK1E
DRAK = experiment: DiscoverRX KINOMEscan binding; settings: 10 μM
[1] = molecular target: dopamine transporter (DAT) (Homo sapiens, UniProt Q01959); experiment: Ricerca LeadProfiling off-target screen; type: binding; settings: read-out: inhibition or stimulation, dopamine transporter (DAT)
dopamine transporter (DAT), sequence (Q01959 whole entry): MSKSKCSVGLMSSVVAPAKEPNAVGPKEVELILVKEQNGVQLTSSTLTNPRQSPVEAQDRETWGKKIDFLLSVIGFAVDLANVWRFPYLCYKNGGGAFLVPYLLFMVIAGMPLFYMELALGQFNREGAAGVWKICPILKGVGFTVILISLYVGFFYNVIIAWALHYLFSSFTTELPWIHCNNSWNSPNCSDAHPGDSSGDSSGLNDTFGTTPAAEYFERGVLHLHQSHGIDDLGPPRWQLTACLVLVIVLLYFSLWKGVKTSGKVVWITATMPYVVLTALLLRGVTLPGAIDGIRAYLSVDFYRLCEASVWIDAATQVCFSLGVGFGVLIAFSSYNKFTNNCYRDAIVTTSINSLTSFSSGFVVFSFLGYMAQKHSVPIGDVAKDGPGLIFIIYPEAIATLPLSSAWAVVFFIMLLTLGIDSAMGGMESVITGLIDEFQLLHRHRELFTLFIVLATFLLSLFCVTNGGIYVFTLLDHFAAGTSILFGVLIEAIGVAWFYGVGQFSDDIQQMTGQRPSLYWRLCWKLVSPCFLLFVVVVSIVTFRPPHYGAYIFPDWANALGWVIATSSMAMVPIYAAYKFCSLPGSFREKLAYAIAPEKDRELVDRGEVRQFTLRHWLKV

[2] = molecular target: norepinephrine transporter (NET) (Homo sapiens, UniProt P23975); experiment: Ricerca LeadProfiling off-target screen; type: binding; settings: read-out: inhibition or stimulation, norepinephrine transporter (NET)
norepinephrine transporter (NET), sequence (P23975 whole entry): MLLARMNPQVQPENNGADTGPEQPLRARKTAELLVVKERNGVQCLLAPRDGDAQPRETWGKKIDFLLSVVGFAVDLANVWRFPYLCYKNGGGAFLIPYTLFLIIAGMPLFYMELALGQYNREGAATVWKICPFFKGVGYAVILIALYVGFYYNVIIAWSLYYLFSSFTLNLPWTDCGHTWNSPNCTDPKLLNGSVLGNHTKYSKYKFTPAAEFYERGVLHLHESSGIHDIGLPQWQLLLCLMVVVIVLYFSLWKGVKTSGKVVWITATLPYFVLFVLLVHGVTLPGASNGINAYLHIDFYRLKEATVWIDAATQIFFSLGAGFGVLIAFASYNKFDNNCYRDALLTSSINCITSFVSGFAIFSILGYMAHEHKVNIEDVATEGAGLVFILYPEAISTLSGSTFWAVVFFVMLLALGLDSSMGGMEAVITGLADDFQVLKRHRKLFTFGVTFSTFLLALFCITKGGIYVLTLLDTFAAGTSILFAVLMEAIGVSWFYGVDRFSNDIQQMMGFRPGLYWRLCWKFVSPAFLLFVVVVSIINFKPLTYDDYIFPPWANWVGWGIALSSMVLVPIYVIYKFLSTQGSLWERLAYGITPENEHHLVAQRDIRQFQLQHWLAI

[3] = phosphate buffered saline (PBS) and assay media
adrenergic α2A = molecular target: T1, adrenergic α2A (Homo sapiens, UniProt P08913); experiment: Ricerca LeadProfiling off-target screen; settings: read-out: inhibition or stimulation, adrenergic α2A
T1 sequence (P08913 1-465): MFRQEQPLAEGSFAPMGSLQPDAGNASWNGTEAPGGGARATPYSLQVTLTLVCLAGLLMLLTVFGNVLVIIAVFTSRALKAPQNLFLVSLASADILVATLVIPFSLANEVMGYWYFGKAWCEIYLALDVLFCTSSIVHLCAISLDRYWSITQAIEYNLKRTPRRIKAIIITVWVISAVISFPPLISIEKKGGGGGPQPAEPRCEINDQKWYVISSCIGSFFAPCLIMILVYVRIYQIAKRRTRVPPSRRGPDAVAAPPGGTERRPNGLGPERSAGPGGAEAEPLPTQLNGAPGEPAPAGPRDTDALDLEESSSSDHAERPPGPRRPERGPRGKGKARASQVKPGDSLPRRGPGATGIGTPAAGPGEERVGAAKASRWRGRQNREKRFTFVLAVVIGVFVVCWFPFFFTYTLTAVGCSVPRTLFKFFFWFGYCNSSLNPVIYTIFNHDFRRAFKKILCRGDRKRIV

Clk4 = Clk4 (Homo sapiens, UniProt Q9HAZ1); experiment: Kinase Glo; type: biochemical; settings: matrix library, Kinase Glo (Promega) assay, Figure 4
Clk4, sequence (Q9HAZ1 whole entry, species assumed): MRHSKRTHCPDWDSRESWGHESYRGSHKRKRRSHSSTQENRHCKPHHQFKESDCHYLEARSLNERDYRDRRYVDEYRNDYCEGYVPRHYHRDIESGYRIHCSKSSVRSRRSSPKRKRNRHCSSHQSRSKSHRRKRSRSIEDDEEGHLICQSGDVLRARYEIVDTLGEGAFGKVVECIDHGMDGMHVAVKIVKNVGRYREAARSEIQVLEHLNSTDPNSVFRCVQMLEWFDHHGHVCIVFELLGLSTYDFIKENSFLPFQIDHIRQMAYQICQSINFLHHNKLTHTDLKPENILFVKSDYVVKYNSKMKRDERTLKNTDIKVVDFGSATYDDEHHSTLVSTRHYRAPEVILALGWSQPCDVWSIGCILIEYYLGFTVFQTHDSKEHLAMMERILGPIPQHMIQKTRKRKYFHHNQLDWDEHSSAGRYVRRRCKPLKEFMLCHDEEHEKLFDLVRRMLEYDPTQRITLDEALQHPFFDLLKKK

Clk3 = Clk3 (Homo sapiens, UniProt P49761); settings: cited from earlier work
Clk3, sequence (P49761 whole entry): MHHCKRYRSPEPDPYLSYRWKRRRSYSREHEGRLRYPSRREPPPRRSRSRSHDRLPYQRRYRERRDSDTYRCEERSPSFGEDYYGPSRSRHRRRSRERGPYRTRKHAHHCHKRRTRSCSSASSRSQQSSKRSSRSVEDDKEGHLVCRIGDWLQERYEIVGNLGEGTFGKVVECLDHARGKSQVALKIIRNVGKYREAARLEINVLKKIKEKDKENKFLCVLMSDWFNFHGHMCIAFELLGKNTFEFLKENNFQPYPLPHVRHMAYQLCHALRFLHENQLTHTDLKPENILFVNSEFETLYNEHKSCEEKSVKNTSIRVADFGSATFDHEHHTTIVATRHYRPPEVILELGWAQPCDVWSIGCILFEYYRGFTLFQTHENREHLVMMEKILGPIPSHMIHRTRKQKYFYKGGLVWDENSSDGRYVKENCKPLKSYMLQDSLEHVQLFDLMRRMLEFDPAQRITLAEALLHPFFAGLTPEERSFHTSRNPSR

CSNK1E, sequence (P49674 whole entry): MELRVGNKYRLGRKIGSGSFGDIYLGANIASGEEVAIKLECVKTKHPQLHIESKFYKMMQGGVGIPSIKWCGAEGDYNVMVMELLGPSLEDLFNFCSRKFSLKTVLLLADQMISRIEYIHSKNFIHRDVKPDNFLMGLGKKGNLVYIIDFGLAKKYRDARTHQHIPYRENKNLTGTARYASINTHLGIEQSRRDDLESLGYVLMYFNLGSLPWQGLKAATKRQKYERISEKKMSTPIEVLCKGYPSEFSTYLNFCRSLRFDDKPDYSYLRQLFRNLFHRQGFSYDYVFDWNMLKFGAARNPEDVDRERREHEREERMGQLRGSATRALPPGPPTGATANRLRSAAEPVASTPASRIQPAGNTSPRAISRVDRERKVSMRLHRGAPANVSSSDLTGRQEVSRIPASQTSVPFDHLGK

In the case of `Clc1ccc(CNc2nccc(-c3ccc4[nH]ncc4c3)n2)cc1Cl` [Compound 22], the remaining binding at 10 µM (CSNK1E) is reported as under 10% and the “% control DRAK” value (DRAK) is reported as under 10 % control.

For `Clc1cc(Cl)cc(CNc2ncncc2-c2ccc3c(c2)OCO3)c1` [Compound 35], the inhibition at 10 µM [1] was over 50%, the inhibition at 10 µM [2] was over 50% and the “solubility” value [3] was “limited”. The “cell permeability” value (Cell permeability) was “moderately cell permeable”, the “plasma stability” value (Plasma stability, mouse) was “stable” and the “plasma stability” value (Plasma stability, human) was “stable”. The inhibition at 10 µM (adrenergic α2A) was over 50%.

For `Clc1ccc(CNc2ccnc(-c3ccc4c(c3)OCO4)n2)cc1Cl` [Compound A2], the “activity against Clk4” value (Clk4) was “active”.

For `Clc1ccc(CNc2ccnc(-c3ccc4c(c3)OCO4)n2)cc1` [Compound A4], the “activity against Clk4” value (Clk4) was “active”.

For `COc1cccc(-c2nccc(NCc3ccc(Cl)c(Cl)c3)n2)c1` [Compound C2], the “activity against Clk4” value (Clk4) was “active”.

In the case of `COc1ccc(-c2nccc(NCc3ccc(Cl)c(Cl)c3)n2)cc1` [Compound G2], the “activity against Clk4” value (Clk4) is reported as “active”.

With `COc1ccc(-c2nccc(NCc3ccc(Cl)cc3)n2)cc1` [Compound G4] the “activity against Clk4” value (Clk4) was “active”.

For `O=C1NC(Nc2ccccc2)=N/C1=C\c1ccc2c(c1)OCO2` [Leucettine L41], the IC50 (Clk3; read-out: Clk3 IC50) is listed as 4.5 µM.

For `CCN1/C(=C/C(C)=O)Sc2ccc(OC)cc21` [TG003], the “Clk3 activity” value (Clk3) is given as “inactive”.
